{"source": "paper PMC11891828", "about": "“Olfactory Receptor Responses to Pure Odorants in Drosophila melanogaster” (The European Journal of Neuroscience, 2025)", "assay_in_all_cases": "in vivo GCaMP6m calcium imaging of antennal neurons, GC-purified odorant", "key": {"[1]": {"target": "T1, Or56a (Drosophila melanogaster, UniProt Q9V8Y7)", "T1 construct": "native receptor in situ in antennal olfactory sensory neurons of living flies; Or56a-Gal4 drives UAS-GCaMP6m reporter; with Odorant receptor coreceptor", "T1 sequence (Q9V8Y7 1-419)": "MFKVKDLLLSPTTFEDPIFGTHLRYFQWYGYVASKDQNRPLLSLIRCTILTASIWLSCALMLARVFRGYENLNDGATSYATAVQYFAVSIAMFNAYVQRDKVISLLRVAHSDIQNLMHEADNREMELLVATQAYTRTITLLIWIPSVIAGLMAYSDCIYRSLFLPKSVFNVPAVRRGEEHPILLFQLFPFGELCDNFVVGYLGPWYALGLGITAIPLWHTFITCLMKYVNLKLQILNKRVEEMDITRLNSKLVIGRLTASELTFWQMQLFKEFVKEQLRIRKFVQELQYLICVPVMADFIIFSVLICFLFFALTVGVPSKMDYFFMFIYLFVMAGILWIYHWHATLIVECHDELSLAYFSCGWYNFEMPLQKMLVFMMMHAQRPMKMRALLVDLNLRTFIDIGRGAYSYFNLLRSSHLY", "T1 sequence (Q9VNB5 1-486 partner)": "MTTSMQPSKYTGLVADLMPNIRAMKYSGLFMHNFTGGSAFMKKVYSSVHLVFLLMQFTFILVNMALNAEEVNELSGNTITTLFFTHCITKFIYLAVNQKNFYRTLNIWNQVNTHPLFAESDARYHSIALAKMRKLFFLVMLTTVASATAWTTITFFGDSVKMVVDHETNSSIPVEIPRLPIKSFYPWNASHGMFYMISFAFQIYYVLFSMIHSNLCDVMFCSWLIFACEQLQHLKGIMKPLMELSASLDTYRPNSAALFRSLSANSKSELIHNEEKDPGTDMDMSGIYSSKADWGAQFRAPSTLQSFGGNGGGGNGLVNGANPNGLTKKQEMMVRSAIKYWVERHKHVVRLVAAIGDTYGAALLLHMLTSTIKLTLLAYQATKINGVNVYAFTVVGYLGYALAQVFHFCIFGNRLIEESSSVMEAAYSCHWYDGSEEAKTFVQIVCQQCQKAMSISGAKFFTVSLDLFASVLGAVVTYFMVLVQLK", "details": "activation; dose series extended to 10^-12 dilution"}, "[2]": {"target": "T2, Or10a (Drosophila melanogaster, UniProt Q9VYZ1)", "T2 construct": "native receptor in situ in antennal olfactory sensory neurons of living flies; Or10a-Gal4 drives UAS-GCaMP6m reporter; with Odorant receptor coreceptor", "T2 sequence (Q9VYZ1 1-406)": "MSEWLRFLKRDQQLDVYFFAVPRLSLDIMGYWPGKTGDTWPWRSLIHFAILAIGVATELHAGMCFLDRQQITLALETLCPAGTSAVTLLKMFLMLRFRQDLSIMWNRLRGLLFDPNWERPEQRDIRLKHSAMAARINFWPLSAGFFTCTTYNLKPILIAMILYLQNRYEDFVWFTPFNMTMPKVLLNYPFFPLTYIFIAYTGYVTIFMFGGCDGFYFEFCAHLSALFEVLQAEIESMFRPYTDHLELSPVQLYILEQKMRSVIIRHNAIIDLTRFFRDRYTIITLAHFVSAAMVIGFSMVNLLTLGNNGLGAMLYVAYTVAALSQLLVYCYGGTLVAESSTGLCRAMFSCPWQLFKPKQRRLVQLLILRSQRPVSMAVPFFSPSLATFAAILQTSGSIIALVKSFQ", "T2 sequence (Q9VNB5 1-486 partner)": "T1 sequence (Q9VNB5 1-486 partner)", "details": "activation; headspace of mineral-oil dilutions 10^-6, 10^-4, 10^-2"}, "[3]": {"target": "T3, Or92a (Drosophila melanogaster, UniProt Q9VDM1)", "T3 construct": "native receptor in situ in antennal olfactory sensory neurons of living flies; Or92a-Gal4 drives UAS-GCaMP6m reporter; with Odorant receptor coreceptor", "T3 sequence (Q9VDM1 1-408)": "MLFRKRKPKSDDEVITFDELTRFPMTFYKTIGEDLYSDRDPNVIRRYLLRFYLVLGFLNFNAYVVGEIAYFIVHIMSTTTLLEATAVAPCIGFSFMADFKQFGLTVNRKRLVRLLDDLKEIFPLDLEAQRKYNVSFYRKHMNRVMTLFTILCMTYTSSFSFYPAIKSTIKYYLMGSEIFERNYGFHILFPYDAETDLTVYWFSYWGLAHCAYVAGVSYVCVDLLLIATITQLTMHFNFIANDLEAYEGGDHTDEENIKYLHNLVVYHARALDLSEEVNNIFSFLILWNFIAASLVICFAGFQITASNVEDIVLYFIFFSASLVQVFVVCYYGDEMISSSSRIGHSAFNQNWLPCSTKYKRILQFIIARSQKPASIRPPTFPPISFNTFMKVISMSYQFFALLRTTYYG", "T3 sequence (Q9VNB5 1-486 partner)": "T1 sequence (Q9VNB5 1-486 partner)", "details": "activation, biphasic; polar GC column; n = 4"}, "[4]": {"target": "T4, Or47a (Drosophila melanogaster, UniProt P81921)", "T4 construct": "native receptor in situ in antennal olfactory sensory neurons of living flies; Or47a-Gal4 drives UAS-GCaMP6m reporter; with Odorant receptor coreceptor", "T4 sequence (P81921 1-385)": "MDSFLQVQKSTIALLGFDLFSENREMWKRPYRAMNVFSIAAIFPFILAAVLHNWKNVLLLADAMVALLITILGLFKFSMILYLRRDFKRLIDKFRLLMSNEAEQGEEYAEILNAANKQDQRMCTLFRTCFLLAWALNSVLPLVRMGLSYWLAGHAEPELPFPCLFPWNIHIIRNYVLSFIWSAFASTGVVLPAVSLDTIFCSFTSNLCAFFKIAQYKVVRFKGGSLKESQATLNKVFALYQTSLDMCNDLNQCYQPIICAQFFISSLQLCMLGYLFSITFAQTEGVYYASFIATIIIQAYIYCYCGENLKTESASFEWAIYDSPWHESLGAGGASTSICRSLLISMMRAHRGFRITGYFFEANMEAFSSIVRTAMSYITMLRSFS", "T4 sequence (Q9VNB5 1-486 partner)": "T1 sequence (Q9VNB5 1-486 partner)", "details": "activation; headspace of mineral-oil dilutions"}, "[5]": {"target": "T3, Or92a", "details": "activation, biphasic; polar GC column; n = 4", "remark": "listed apart in the source"}}, "data": [{"smiles": "CC1CCCC2(C)CCCCC12O", "note": "(racemic) [2MNL, (±)-geosmin]", "values": [{"measurement": "in vivo GCaMP6m calcium imaging of antennal neurons, GC-purified odorant", "setting": "[1]", "value": "We found strong responses to geosmin and none to any of the other substances"}]}, {"smiles": "CCOC(=O)c1ccccc1", "note": "[2EBM, ethyl benzoate]", "values": [{"measurement": "in vivo GCaMP6m calcium imaging of antennal neurons, GC-purified odorant", "setting": "[2]", "value": "good ligands were methyl benzoate and ethyl benzoate"}]}, {"smiles": "C[C@H](O)[C@@H](C)O", "note": "[MBDL, meso-2,3-Butanediol]", "values": [{"measurement": "in vivo GCaMP6m calcium imaging of antennal neurons, GC-purified odorant", "setting": "[3]", "value": "the meso isomer, identical to 2R,3S) gave a weak response only"}]}, {"smiles": "COC(=O)c1ccccc1", "note": "[MBZM, methyl benzoate]", "values": [{"measurement": "in vivo GCaMP6m calcium imaging of antennal neurons, GC-purified odorant", "setting": "[2]", "value": "good ligands were methyl benzoate and ethyl benzoate"}]}, {"smiles": "COC(=O)c1ccccc1O", "note": "[MSAM, methyl salicylate]", "values": [{"measurement": "in vivo GCaMP6m calcium imaging of antennal neurons, GC-purified odorant", "setting": "[2]", "value": "The best ligand was methyl salicylate"}]}, {"smiles": "CCCCCOC(C)=O", "note": "[PACE, pentyl acetate]", "values": [{"measurement": "in vivo GCaMP6m calcium imaging of antennal neurons, GC-purified odorant", "setting": "[4]", "value": "We found strong responses to pentyl acetate (significant to very low concentrations"}]}, {"smiles": "C[C@@H](O)[C@@H](C)O", "note": "[RBDL, (2R,3R)-(−)-2,3-Butanediol]", "values": [{"measurement": "calcium response", "setting": "[5]", "value": "~ 15%"}]}, {"smiles": "C[C@H](O)[C@H](C)O", "note": "[SBDL, (2S,3S)-(+)-2,3-Butanediol]", "values": [{"measurement": "calcium response", "setting": "[5]", "value": "> 40", "unit": "%"}]}]}
